Test results reported in ChEMBL document CHEMBL3124937, “Design, synthesis and biological evaluation of 7-nitro-1H-indole-2-carboxylic acid derivatives as allosteric inhibitors of fructose-1,6-bisphosphatase” (Bioorg Med Chem, 2014).

Molecular target: T1, Fructose-1,6-bisphosphatase 1 (Homo sapiens, UniProt P09467)
T1 sequence (P09467 whole entry): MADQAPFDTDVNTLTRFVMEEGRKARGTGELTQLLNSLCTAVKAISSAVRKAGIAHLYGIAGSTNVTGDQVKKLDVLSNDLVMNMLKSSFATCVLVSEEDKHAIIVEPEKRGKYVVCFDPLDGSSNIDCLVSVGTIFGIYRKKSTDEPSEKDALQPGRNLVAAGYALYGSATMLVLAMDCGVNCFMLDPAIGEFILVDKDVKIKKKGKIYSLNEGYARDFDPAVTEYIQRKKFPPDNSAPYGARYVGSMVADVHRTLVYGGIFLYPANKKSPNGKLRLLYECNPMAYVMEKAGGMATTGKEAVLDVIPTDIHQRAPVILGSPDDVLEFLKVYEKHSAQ
Assay: Inhibition of FBPase (unknown origin)

| SMILES | IC50 [µM] |
| --- | --- |
| O=C(O)CCc1c(C(=O)O)[nH]c2cc(Cl)cc(Cl)c12 | 2.5 |

Molecular target: T1, Fructose-1,6-bisphosphatase 1
Assay: Inhibition of human recombinant FBPase expressed in Escherichia coli BL21(DE3) by phosphoglucose isomerase and glucose-6-phosphate dehydrogenase coupled assay

| SMILES | IC50 [µM] |
| --- | --- |
| COc1ccc(Nc2ccc([N+](=O)[O-])c3[nH]c(C(=O)O)cc23)cc1OC | 7.7 |
| O=C(O)c1cc2c(Nc3ccc([N+](=O)[O-])cc3)ccc([N+](=O)[O-])c2[nH]1 | 3.4 |
| CC(C)Cc1ccc([N+](=O)[O-])c2[nH]c(C(=O)O)cc12 | 9.7 |
| Nc1ncnc2c1ncn2[C@@H]1O[C@H](COP(=O)(O)O)[C@@H](O)[C@H]1O [ADENOSINE PHOSPHATE] | 3.2 |
| CCc1c(C(=O)O)[nH]c2c([N+](=O)[O-])cccc12 | 6.2 |
| O=C(O)c1cc2c(Nc3cccc([N+](=O)[O-])c3)ccc([N+](=O)[O-])c2[nH]1 | > 50 |
| Cc1cccc(Nc2ccc([N+](=O)[O-])c3[nH]c(C(=O)O)cc23)c1 | 4.3 |
| O=C(O)c1cc2c(-c3cccc(Cl)c3)ccc([N+](=O)[O-])c2[nH]1 | > 50 |
| N#Cc1ccc(-c2ccc([N+](=O)[O-])c3[nH]c(C(=O)O)cc23)cc1 | > 50 |
| COc1cccc(N(C)c2ccc([N+](=O)[O-])c3[nH]c(C(=O)O)cc23)c1 | > 50 |
| CC(=O)Nc1cccc(-c2cc([N+](=O)[O-])c3[nH]c(C(=O)O)cc3c2)c1 | 3.7 |
| O=C(O)c1[nH]c2c([N+](=O)[O-])cccc2c1-c1cccc(F)c1 | 4.5 |
| Nc1cccc(Nc2ccc([N+](=O)[O-])c3[nH]c(C(=O)O)cc23)c1 | > 50 |
| COc1cccc(-c2ccc([N+](=O)[O-])c3[nH]c(C(=O)O)cc23)c1 | > 50 |
| O=C(O)c1cc2c(-c3ccc(Cl)cc3)ccc([N+](=O)[O-])c2[nH]1 | > 50 |
| CC(C)Cc1c(C(=O)O)[nH]c2c([N+](=O)[O-])cccc12 | 10.3 |
| COc1ccccc1Nc1ccc([N+](=O)[O-])c2[nH]c(C(=O)O)cc12 | > 50 |
| O=C(O)c1[nH]c2c([N+](=O)[O-])cccc2c1-c1ccccc1 | 12.7 |
| Nc1cccc(-c2ccc([N+](=O)[O-])c3[nH]c(C(=O)O)cc23)c1 | > 50 |
| COc1cc(Nc2ccc([N+](=O)[O-])c3[nH]c(C(=O)O)cc23)cc(OC)c1OC | > 50 |
| COc1ccc(Nc2ccc([N+](=O)[O-])c3[nH]c(C(=O)O)cc23)cc1 | > 50 |

| SMILES | IC50 [µM] |
| --- | --- |
| CC(=O)Nc1cccc(-c2ccc([N+](=O)[O-])c3[nH]c(C(=O)O)cc23)c1 | 18.5 |
| O=C(O)c1cc2c(Nc3cccc(Cl)c3)ccc([N+](=O)[O-])c2[nH]1 | > 50 |
| Cc1cccc(-c2ccc([N+](=O)[O-])c3[nH]c(C(=O)O)cc23)c1 | 25.9 |
| O=C(O)c1cc2c(Nc3ccc(C(F)(F)F)cc3)ccc([N+](=O)[O-])c2[nH]1 | 12.2 |
| CC(C)Cc1cc([N+](=O)[O-])c2[nH]c(C(=O)O)cc2c1 | 5.4 |
| COc1cccc(-c2c(C(=O)O)[nH]c3c([N+](=O)[O-])cccc23)c1 | 35.6 |
| O=C(O)c1cc2c(-c3ccc(C(F)(F)F)cc3)ccc([N+](=O)[O-])c2[nH]1 | > 50 |
| N#Cc1cccc(-c2ccc([N+](=O)[O-])c3[nH]c(C(=O)O)cc23)c1 | > 50 |
| CC(=O)Nc1cccc(-c2c(C(=O)O)[nH]c3c([N+](=O)[O-])cccc23)c1 | 7.4 |
| O=C(O)c1cc2c(Nc3ccccc3)ccc([N+](=O)[O-])c2[nH]1 | > 50 |
| O=C(O)c1cc2c(Nc3cccc(C(F)(F)F)c3)ccc([N+](=O)[O-])c2[nH]1 | 29.1 |
| COc1cccc(Nc2cc([N+](=O)[O-])c3[nH]c(C(=O)O)cc3c2)c1 | 4.06 |
| O=C(O)c1cc2c(-c3cccc(C(F)(F)F)c3)ccc([N+](=O)[O-])c2[nH]1 | > 50 |
| O=C(O)c1cc2c(-c3ccccc3)ccc([N+](=O)[O-])c2[nH]1 | > 50 |
| O=C(O)c1cc2c(Nc3ccc(Cl)cc3)ccc([N+](=O)[O-])c2[nH]1 | > 50 |
| CC(=O)Nc1cccc(Nc2ccc([N+](=O)[O-])c3[nH]c(C(=O)O)cc23)c1 | > 50 |
| O=C(O)CCc1c(C(=O)O)[nH]c2cc(Cl)cc(Cl)c12 | 2 |
| CCCN(c1cccc(OC)c1)c1ccc([N+](=O)[O-])c2[nH]c(C(=O)O)cc12 | > 50 |
| COc1cccc(Nc2ccc([N+](=O)[O-])c3[nH]c(C(=O)O)cc23)c1 | 25.6 |
| Cc1ccc(Nc2ccc([N+](=O)[O-])c3[nH]c(C(=O)O)cc23)cc1 | 33.9 |
| CCc1c(C(=O)O)[nH]c2c([N+](=O)[O-])cc(CC(C)C)cc12 | 0.99 |
